Measurements from patent publication US9974306B2, “Herbicidal combinations for tolerant soybean cultures” (priority 2012, dated 2018).

Assays:
[1] = tested on: SORHA; assay: Post-emergence greenhouse treatment, visual rating of herbicidal effect; assay type: in vivo, Sorghum halepense
Procedure: (§1) Seeds of grass and broadleaf weeds were sown in pots (diameter: 8 cm) filled with a sandy loam soil. For the herbicide post-emergent treatment, the weeds were grown under optimal conditions up to a growth stage of BBCH 11 (1-2 leaf stage) to 14 (3-4 leaf stage) depending on species. The following weeds were used:
(§2) The applications were performed by post emergence treatments on the planted pots using a spray volume of 300 L water per hectare. The herbicides were applied alone and in combination as in the tables below.
(§3) The trial was conducted in the greenhouse ensuring optimal growing conditions.
(§4) The herbicidal effects were assessed 14 and 24 days following application by visual ratings comparing treated and untreated plants (0%=no effect to 100%=complete die-off).
(§5) The visual ratings are used to calculate interactions between treatments alone and combination treatments according to S. R. Colby, Weeds 15, pages 20 to 22 (1967).

[2] = tested on: PHBPU; assay: as above; assay type: in vivo, Pharbitis purpurea
Procedure: as §1, §2, §3, §4, §5

[3] = tested on: GLXMA Protina; assay: Post-emergence greenhouse treatment, visual rating of effect on conventional soybean PROTINA; assay type: in vivo; conditions: for Effect (%): GLXMA Protina
Procedure: (§6) The soybeans were grown under the same conditions as described above. The following three varieties were used in the tests:
(§7) 1) W336—Transgenic soybean plants comprising a chimeric gene encoding a W336 mutant HPPD protein of Pseudomonas fluorescens (U.S. Pat. No. 6,245,968) fused to the optimized transit peptide for chloroplast targeting (U.S. Pat. No. 5,510,471), and under the control of the 35S CaMV promoter (Odell et al., 1985, Nature 313: 810-812) fused to the 5′ enhancer sequence of TEV (Carrington and Freed, 1990, J. Virol. 64: 1590-1597), with as 3′ transcript termination and polyadenylation region that of the CaMV 35S gene (Sanfacon et al., 1991, Genes & Development 5:141-149), abbreviated as “W336 soybean plants” herein. 2) MERLIN—conventional 3) PROTINA—conventional
(§8) Two sets of soybeans reaching different growth stages at application time were prepared: one up to growth stage BBCH 11 (1-2 leaf stage) and the other up to BBCH 13 (3-4 leaf stage). Both soybean sets were treated at the same time (together with the weeds) but they were evaluated separately.
as §2, §3, §4, §5

[4] = tested on: GLXMA GM_W336; assay: Post-emergence greenhouse treatment, visual rating of effect on W336 transgenic (HPPD inhibitor tolerant) soybean; assay type: in vivo; conditions: for Effect (%): GLXMA GM_W336
Procedure: as §6, §7, §8, §2, §3, §4, §5

[5] = tested on: BIDPI; assay: Post-emergence greenhouse treatment, visual rating of herbicidal effect; assay type: in vivo, Bidens pilosa
Procedure: as §1, §2, §3, §4, §5

[6] = tested on: POLCO; assay: as above; assay type: in vivo, Polygonum convolvulus; conditions: for Effect (%): POLCO, (B1) alone 40 g a.i./ha
Procedure: as §1, §2, §3, §4, §5

[7] = tested on: SETVI; assay: as above; assay type: in vivo, Setaria viridis; conditions: 1-2 leaf; for Effect: 24 d; for Effect (%): SETVI, assessment 24 d
Procedure: as §1, §2, §3, §4, §5

[8] = tested on: GLXMA Merlin; assay: Post-emergence greenhouse treatment, visual rating of effect on conventional soybean MERLIN; assay type: in vivo; conditions: for Effect (%): GLXMA Merlin, assessment 24 d
Procedure: as §6, §7, §8, §2, §3, §4, §5

[9] = tested on: SETFA; assay: Post-emergence greenhouse treatment, visual rating of herbicidal effect; assay type: in vivo, Setaria faberi; conditions: 1-2 leaf
Procedure: as §1, §2, §3, §4, §5

[10] = tested on: EPHHL; assay: as above; assay type: in vivo, Euphorbia heterophylla
Procedure: as §1, §2, §3, §4, §5

[11] = tested on: BRAPP; assay: as above; assay type: in vivo, Brachiaria platyphylla; conditions: for Effect (%): BRAPP
Procedure: as §1, §2, §3, §4, §5

[12] = 1-2 leaf, 24 d, 80 g a.i./ha alone
[13] = 3-4 leaf, 14 d, 20 g a.i./ha alone
[14] = 3-4 leaf, 14 d, 80 g a.i./ha alone
[15] = 1-2 leaf, 24 d, 20 g a.i./ha alone
[16] = 1-2 leaf, 14 d, 20 g a.i./ha alone
[17] = 1-2 leaf, 24 d, 40 g a.i./ha alone
[18] = 1-2 leaf, assessment 24 d, (B1) alone 40 g a.i./ha
[19] = 3-4 leaf, assessment 14 d, (B1) alone 20 g a.i./ha
[20] = 3-4 leaf, assessment 14 d, (B1) alone 40 g a.i./ha
[21] = 1-2 leaf, assessment 24 d, (B1) alone 80 g a.i./ha

CSc1nnc(C(C)(C)C)c(=O)n1N [(B1), 4-amino-6-tert-butyl-4,5-dihydro-3-methylthio-1,2,4-triazin-5-one]
Effect [1, 12]: 10% | Effect ([1]; 1-2 leaf, 14 d, 80 g a.i./ha): 20% | Effect ([1]; 1-2 leaf, 24 d, 80 g a.i./ha): 10% | Effect [1, 13]: 20% | Effect [1, 14]: 20% | Effect ([1]; 3-4 leaf, 14 d, 20 g a.i./ha): 20% | Effect ([1]; 3-4 leaf, 24 d, 20 g a.i./ha): 0% | Effect (%) ([1]; SORHA, 1-2 leaf, assessment 24 d, (B1) alone 40 g a.i./ha): 10% | Effect [2, 15]: 0% | Effect ([2]; 1-2 leaf, 24 d, 40 g a.i./ha): 0% | Effect ([2]; 3-4 leaf, 14 d, 40 g a.i./ha): 10% | Effect [3, 16]: 20% | Effect [3, 15]: 15% | Effect [3, 17]: 15% | Effect [3, 12]: 40% | Effect ([3]; 1-2 leaf, 14 d, 80 g a.i./ha): 40% | Effect ([3]; 1-2 leaf, 24 d, 80 g a.i./ha): 40% | Effect [3, 13]: 25% | Effect ([3]; 3-4 leaf, 14 d, 20 g a.i./ha): 25% | Effect ([3]; 3-4 leaf, 14 d, 40 g a.i./ha): 35% | Effect ([3]; 3-4 leaf, 24 d, 20 g a.i./ha): 35% | Effect (%) [3, 18]: 15% | Effect (%) [3, 19]: 25% | Effect (%) [3, 20]: 35% | Effect [4, 16]: 20% | Effect [4, 15]: 10% | Effect [4, 17]: 10% | Effect [4, 12]: 30% | Effect ([4]; 1-2 leaf, 14 d, 80 g a.i./ha): 25% | Effect ([4]; 1-2 leaf, 24 d, 40 g a.i./ha): 10% | Effect ([4]; 1-2 leaf, 24 d, 80 g a.i./ha): 30% | Effect [4, 13]: 35% | Effect [4, 14]: 35% | Effect ([4]; 3-4 leaf, 14 d, 20 g a.i./ha): 35% | Effect ([4]; 3-4 leaf, 14 d, 40 g a.i./ha): 35% | Effect ([4]; 3-4 leaf, 24 d, 20 g a.i./ha): 30% | Effect (%) [4, 18]: 10% | Effect (%) [4, 21]: 30% | Effect (%) [4, 19]: 35% | Effect (%) [4, 20]: 35% | Effect [5, 15]: 5% | Effect [5, 17]: 45% | Effect ([5]; 3-4 leaf, 14 d, 20 g a.i./ha): 40% | Effect ([5]; 3-4 leaf, 24 d, 20 g a.i./ha): 5% | Effect (%) ([5]; BIDPI, 3-4 leaf, assessment 14 d, (B1) alone 20 g a.i./ha): 40% | Effect [6, 12]: 20% | Effect [6, 13]: 10% | Effect [6, 14]: 40% | Effect ([6]; 3-4 leaf, 14 d, 20 g a.i./ha): 10% | Effect ([6]; 3-4 leaf, 24 d, 20 g a.i./ha): 10% | Effect (%) ([6]; 1-2 leaf, assessment 24 d): 15% | Effect (%) ([6]; 3-4 leaf, assessment 14 d): 40% | Effect ([7]; 80 g a.i./ha alone): 10% | Effect ([7]; 80 g a.i./ha): 10% | Effect (%) ([7]; (B1) alone 40 g a.i./ha): 50% | Effect (%) ([7]; (B1) alone 80 g a.i./ha): 10% | Effect ([8]; 1-2 leaf, 24 d, 40 g a.i./ha): 0% | Effect [8, 14]: 50% | Effect ([8]; 3-4 leaf, 24 d, 20 g a.i./ha): 40% | Effect (%) ([8]; 1-2 leaf, (B1) alone 40 g a.i./ha): 0% | Effect (%) ([8]; 1-2 leaf, (B1) alone 80 g a.i./ha): 10% | Effect ([9]; 14 d, 80 g a.i./ha): 30% | Effect ([9]; 24 d, 40 g a.i./ha): 10% | Effect (%) ([9]; SETFA, assessment 24 d, (B1) alone 40 g a.i./ha): 10% | Effect [10, 16]: 45% | Effect [10, 15]: 20% | Effect [10, 12]: 65% | Effect ([10]; 3-4 leaf, 24 d, 20 g a.i./ha): 20% | Effect [11, 16]: 15% | Effect [11, 15]: 10% | Effect [11, 17]: 10% | Effect ([11]; 3-4 leaf, 14 d, 20 g a.i./ha): 15% | Effect ([11]; 3-4 leaf, 14 d, 40 g a.i./ha): 45% | Effect ([11]; 3-4 leaf, 24 d, 20 g a.i./ha): 10% | Effect (%) [11, 18]: 10% | Effect (%) [11, 21]: 35% | Effect (%) [11, 19]: 15% | Effect (%) [11, 20]: 45%
